According to patent US5491155A, “Substituted thiadiazoles, compositions containing them and their use as antimicrobial and marine antifouling agents” (The Dow Chemical Company, priority 1994, dated 1996):
In brackets after ≈: the same amount, converted by molar mass. Like-named read-outs stand apart in the source and are kept apart here.

Key:
Bacillus subtilis = test: MIC in nutrient agar, Bacillus subtilis; assay type: cell-based, Bacillus subtilis (ATCC 8473); conditions: Bs, 48 hours, read-out: Minimum Inhibitory Concentration (MIC)
Method: (§1) The minimum inhibitory concentration (MIC) for the compounds listed in Table I is determined for bacteria, using nutrient agar, and 7 yeast and fungi, using malt yeast agar. A one percent solution of the test compound is prepared in a mixture of acetone and water.
(§2) Nutrient agar is prepared at pH 6.8, representing a neutral medium, and at pH 8.2, representing an alkaline medium. The nutrient agars are prepared by adding 23 g of nutrient agar to one-liter of deionized water. In addition, the alkaline medium is prepared by adjusting a 0.04M solution of N-(tris-(hydroxymethyl)methyl)glycine buffered deionized water with concentrated sodium hydroxide to a pH of 8.5.
(§3) The test tubes containing the agar are cooled in a water bath until the temperature of the agar is 48° C. Then, an appropriate amount of the one percent solution of the test compound is added (except in the controls where no compound is added) to the respective test tubes so that the final concentrations are 500, 250, 100, 50, 25, 10, 2.5, 1.0 and zero parts per million of the test compound in the agar, thus having a known concentration of test compound dispersed therein. The contents of the test tubes are then transferred to respective petri plates. After drying for 24 hours, the petri plates containing nutrient agar are inoculated with bacteria and those containing malt yeast agar are inoculated with yeast and fungi.
(§4) The inoculation with bacteria is accomplished by using the following procedure. Twenty-four hour-cultures of each of the bacteria are prepared by incubating the respective bacteria in tubes containing nutrient broth for 24 hours at 30° C. in a shaker. Dilutions of each of the 24 hour-cultures are made so that nine separate suspensions (one for each of the nine test bacteria) are made, each containing 10^8 colony forming units (CFU) per mL of suspension of a particular bacteria. Aliquots of 0.3 mL of each of the bacterial suspensions are used to fill the individual wells of Steer's Replicator. For each microbial suspension, 0.3 mL was used to fill three wells (i.e., three wells of 0.3 mL each) so that for the nine different bacteria, 27 wells are filled. The Steer's Replicator is then used to inoculate both the neutral and alkaline pH nutrient agar petri plates.
(§5) The inoculated petri plates are incubated at 30° C. for 48 hours and then read to determine if the test compound which is incorporated into the agar prevented growth of the respective bacteria.
(§6) Table II lists the bacteria, yeast and fungi used in the MIC test described above along with their respective American Type Culture Collection (ATCC) identification numbers.
(§7) In Tables III and IV, the MIC values of the compounds described in Table I as compared to the MIC of a standard commercial preservative (with 1-(3-chloroalkyl)-3,5,7-triaza-1-azoniaadamantane chloride as the active agent and referred to in Tables III and IV as "STANDARD I") are set forth for the bacteria organisms and yeast/fungi organisms which are listed in Table II.

Enterobacter aerogenes = test: MIC in nutrient agar, Enterobacter aerogenes; assay type: cell-based, Enterobacter aerogenes (ATCC 13048); conditions: Klebsiella aerogenes, Ea, 30° C., 48 hours, read-out: Minimum Inhibitory Concentration (MIC)
Method: as §1, §2, §3, §4, §5, §6, §7

Escherichia coli = test: MIC in nutrient agar, Escherichia coli; assay type: cell-based, Escherichia coli (ATCC 11229); conditions: Ec, 48 hours, read-out: Minimum Inhibitory Concentration (MIC)
Method: as §1, §2, §3, §4, §5, §6, §7

Klebsiella pneumonias = test: MIC in nutrient agar, Klebsiella pneumonias; assay type: cell-based, Klebsiella pneumonias (ATCC 8308); conditions: Kp, 48 hours, read-out: Minimum Inhibitory Concentration (MIC)
Method: as §1, §2, §3, §4, §5, §6, §7

Proteus vulgaris = test: MIC in nutrient agar, Proteus vulgaris; assay type: cell-based, Proteus vulgaris (ATCC 881); conditions: Pv, 48 hours, read-out: Minimum Inhibitory Concentration (MIC)
Method: as §1, §2, §3, §4, §5, §6, §7

[1] = system: Pseudomonas aeruginosa (PRD-10); test: MIC in nutrient agar, Pseudomonas aeruginosa (PRD-10); assay type: cell-based, Pseudomonas aeruginosa (ATCC 15442); conditions: PRD, 48 hours, read-out: Minimum Inhibitory Concentration (MIC)
Method: as §1, §2, §3, §4, §5, §6, §7

Pseudomonas aeruginosa = test: MIC in nutrient agar, Pseudomonas aeruginosa (Pa); assay type: cell-based, Pseudomonas aeruginosa (ATCC 10145); conditions: Pa, 48 hours, read-out: Minimum Inhibitory Concentration (MIC)
Method: as §1, §2, §3, §4, §5, §6, §7

Salmonella choleraesuis = test: MIC in nutrient agar, Salmonella choleraesuis; assay type: cell-based, Salmonella choleraesuis (ATCC 10708); conditions: Salmonella enterica, Sc, 48 hours, read-out: Minimum Inhibitory Concentration (MIC)
Method: as §1, §2, §3, §4, §5, §6, §7

Staphylococcus aureus = test: MIC in nutrient agar, Staphylococcus aureus; assay type: cell-based, Staphylococcus aureus (ATCC 6538); conditions: Sa, 48 hours, read-out: Minimum Inhibitory Concentration (MIC)
Method: as §1, §2, §3, §4, §5, §6, §7

Aspergillus niger = test: MIC in malt yeast agar, Aspergillus niger; assay type: cell-based, Aspergillus niger (ATCC 16404); conditions: An; malt yeast agar; 30° C.; 72 hours for fungi; read-out: Minimum Inhibitory Concentration (MIC)
Method: as §1
(§8) Malt yeast agar is prepared by adding 3 g yeast extract and 45 g malt agar per liter of deionized water. The specific agar is dispensed in 30 mL aliquots into 25×200 mm test tubes, capped and autoclaved for 15 minutes at 115° C.
as §3
(§9) The inoculation with the yeast and fungi is accomplished as follows. Cultures of yeast and fungi are incubated for seven days on malt yeast agar at 30° C. These cultures are used to prepare suspensions by the following procedure. A suspension of each organism is prepared by adding 10 mL of sterile saline and 10 microliters of octylphenoxy polyethoxy ethanol to the agar slant of yeast or fungi. The sterile saline/octylphenoxy polyethoxy ethanol solution is then agitated with a sterile swab to suspend the microorganism grown on the slant. Each resulting suspension is diluted into sterile saline (1 part suspension: 9 parts sterile saline). Aliquots of these dilutions are placed in individual wells of Steer's Replicator and petri plates inoculated as previously described. The petri plates are incubated at 30° C. and read after 48 hours for yeast and 72 hours for fungi.
as §6, §7

Candida albicans = test: MIC in malt yeast agar, Candida albicans; assay type: cell-based, Candida albicans (ATCC 10231); conditions: Ca; malt yeast agar; 30° C.; 48 hours for yeast; read-out: Minimum Inhibitory Concentration (MIC)
Method: as §1, §8, §3, §9, §6, §7

Penicillium chrysogenum = test: MIC in malt yeast agar, Penicillium chrysogenum; assay type: cell-based, Penicillium chrysogenum (ATCC 9480); conditions: Pc; malt yeast agar; 30° C.; 72 hours for fungi; read-out: Minimum Inhibitory Concentration (MIC)
Method: as §1, §8, §3, §9, §6, §7

Saccharomyces cerevisiae = test: MIC in malt yeast agar, Saccharomyces cerevisiae; assay type: cell-based, Saccharomyces cerevisiae (ATCC 4105); conditions: Sc, malt yeast agar, 30° C., 48 hours for yeast, read-out: Minimum Inhibitory Concentration (MIC)
Method: as §1, §8, §3, §9, §6, §7

Trichoderma viride = test: MIC in malt yeast agar, Trichoderma viride; assay type: cell-based, Trichoderma viride (ATCC 8678); conditions: Tv; malt yeast agar; 30° C.; 72 hours for fungi; read-out: Minimum Inhibitory Concentration (MIC)
Method: as §1, §8, §3, §9, §6, §7

Aureobasidium pullulan = test: MIC in malt yeast agar, Aureobasidium pullulan; assay type: cell-based, Aureobasidium pullulan (ATCC 16622); conditions: Ap; malt yeast agar; 30° C.; 72 hours for fungi; read-out: Minimum Inhibitory Concentration (MIC)
Method: as §1, §8, §3, §9, §6, §7

Fusarium oxysporum = test: MIC in malt yeast agar, Fusarium oxysporum; assay type: cell-based, Fusarium oxysporum (ATCC 48112); conditions: Fo; malt yeast agar; 30° C.; 72 hours for fungi; read-out: Minimum Inhibitory Concentration (MIC)
Method: as §1, §8, §3, §9, §6, §7

Q: `N#CSCCSc1nsnc1SCCSC#N` [Example 5, Bis(thioethylthiocyanato)-1,2,5-thiadiazole] was tested. Which MIC (Bacillus subtilis; pH 6.8, 30° C.) did it give?
A: The MIC was greater than 500 µg/mL.

Q: And the MIC (Bacillus subtilis; pH 8.2, 30° C.)?
A: The MIC was greater than 500 µg/mL.

Q: What about the MIC (Enterobacter aerogenes; pH 6.8) of the same compound?
A: The MIC was greater than 500 µg/mL.

Q: And the MIC (Enterobacter aerogenes; pH 8.2)?
A: Its MIC is greater than 500 µg/mL.

Q: What about the MIC (Escherichia coli; pH 6.8, 30° C.) of the same compound?
A: Its MIC is greater than 500 µg/mL.

Q: And the MIC (Escherichia coli; pH 8.2, 30° C.)?
A: The MIC was greater than 500 µg/mL.

Q: And the MIC (Klebsiella pneumonias; pH 6.8, 30° C.)?
A: Its MIC is greater than 500 µg/mL.

Q: What about the MIC (Klebsiella pneumonias; pH 8.2, 30° C.) of the same compound?
A: The MIC was greater than 500 µg/mL.

Q: What about the MIC (Proteus vulgaris; pH 6.8, 30° C.) of the same compound?
A: Its MIC is greater than 500 µg/mL.

Q: And the MIC (Proteus vulgaris; pH 8.2, 30° C.)?
A: The MIC was greater than 500 µg/mL.

Q: What about the MIC ([1]; pH 6.8, 30° C.) of the same compound?
A: The MIC was greater than 500 µg/mL.

Q: What about the MIC ([1]; pH 8.2, 30° C.) of the same compound?
A: Its MIC is greater than 500 µg/mL.

Q: And the MIC (Pseudomonas aeruginosa; pH 6.8, 30° C.)?
A: Its MIC is greater than 500 µg/mL.

Q: And the MIC (Pseudomonas aeruginosa; pH 8.2, 30° C.)?
A: The MIC was greater than 500 µg/mL.

Q: What about the MIC (Salmonella choleraesuis; pH 6.8, 30° C.) of the same compound?
A: The MIC was greater than 500 µg/mL.

Q: What about the MIC (Salmonella choleraesuis; pH 8.2, 30° C.) of the same compound?
A: Its MIC is greater than 500 µg/mL.

Q: What about the MIC (Staphylococcus aureus; pH 6.8, 30° C.) of the same compound?
A: Its MIC is greater than 500 µg/mL.

Q: And the MIC (Staphylococcus aureus; pH 8.2, 30° C.)?
A: The MIC was greater than 500 µg/mL.

Q: And the MIC (Aspergillus niger)?
A: Its MIC is less than 10 µg/mL.

Q: What about the MIC (Candida albicans) of the same compound?
A: The MIC was 100 µg/mL (≈ 312 µM).

Q: What about the MIC (Penicillium chrysogenum) of the same compound?
A: The MIC was less than 10 µg/mL.

Q: What about the MIC (Saccharomyces cerevisiae) of the same compound?
A: The MIC was less than 10 µg/mL.

Q: And the MIC (Trichoderma viride)?
A: Its MIC is greater than 500 µg/mL.

Q: What about the MIC (Aureobasidium pullulan) of the same compound?
A: The MIC was less than 10 µg/mL.

Q: And the MIC (Fusarium oxysporum)?
A: Its MIC is 250 µg/mL (≈ 780 µM).

Q: For `N#CSCOc1nsnc1Cl` [Example 6, 4-Chloro-3-thiocyanato-methyloxo-1,2,5-thiadiazole], which MIC (Bacillus subtilis; pH 6.8, 30° C.) is on record?
A: The MIC was less than 10 µg/mL.

Q: And the MIC (Bacillus subtilis; pH 8.2, 30° C.)?
A: The MIC was 25 µg/mL (≈ 120 µM).

Q: And the MIC (Enterobacter aerogenes; pH 6.8)?
A: Its MIC is 50 µg/mL (≈ 241 µM).

Q: What about the MIC (Enterobacter aerogenes; pH 8.2) of the same compound?
A: Its MIC is 50 µg/mL (≈ 241 µM).

Q: And the MIC (Escherichia coli; pH 6.8, 30° C.)?
A: The MIC was 25 µg/mL (≈ 120 µM).

Q: And the MIC (Escherichia coli; pH 8.2, 30° C.)?
A: Its MIC is 25 µg/mL (≈ 120 µM).

Q: What about the MIC (Klebsiella pneumonias; pH 6.8, 30° C.) of the same compound?
A: The MIC was 25 µg/mL (≈ 120 µM).

Q: What about the MIC (Klebsiella pneumonias; pH 8.2, 30° C.) of the same compound?
A: Its MIC is 25 µg/mL (≈ 120 µM).

Q: And the MIC (Proteus vulgaris; pH 6.8, 30° C.)?
A: Its MIC is less than 10 µg/mL.

Q: What about the MIC (Proteus vulgaris; pH 8.2, 30° C.) of the same compound?
A: The MIC was 25 µg/mL (≈ 120 µM).

Q: And the MIC ([1]; pH 6.8, 30° C.)?
A: Its MIC is 100 µg/mL (≈ 482 µM).

Q: What about the MIC ([1]; pH 8.2, 30° C.) of the same compound?
A: Its MIC is 100 µg/mL (≈ 482 µM).

Q: And the MIC (Pseudomonas aeruginosa; pH 6.8, 30° C.)?
A: The MIC was 50 µg/mL (≈ 241 µM).

Q: What about the MIC (Pseudomonas aeruginosa; pH 8.2, 30° C.) of the same compound?
A: Its MIC is 50 µg/mL (≈ 241 µM).

Q: And the MIC (Salmonella choleraesuis; pH 6.8, 30° C.)?
A: The MIC was less than 10 µg/mL.

Q: What about the MIC (Salmonella choleraesuis; pH 8.2, 30° C.) of the same compound?
A: Its MIC is 25 µg/mL (≈ 120 µM).

Q: What about the MIC (Staphylococcus aureus; pH 6.8, 30° C.) of the same compound?
A: The MIC was 25 µg/mL (≈ 120 µM).

Q: What about the MIC (Staphylococcus aureus; pH 8.2, 30° C.) of the same compound?
A: Its MIC is 25 µg/mL (≈ 120 µM).

Q: What about the MIC (Aspergillus niger) of the same compound?
A: The MIC was less than 10 µg/mL.

Q: And the MIC (Candida albicans)?
A: Its MIC is less than 10 µg/mL.

Q: And the MIC (Penicillium chrysogenum)?
A: The MIC was less than 10 µg/mL.

Q: And the MIC (Saccharomyces cerevisiae)?
A: The MIC was less than 10 µg/mL.

Q: What about the MIC (Trichoderma viride) of the same compound?
A: The MIC was 25 µg/mL (≈ 120 µM).

Q: And the MIC (Aureobasidium pullulan)?
A: The MIC was less than 10 µg/mL.

Q: What about the MIC (Fusarium oxysporum) of the same compound?
A: Its MIC is less than 10 µg/mL.
